Reference: the NIST ThermoML archive (doi:10.1021/je060271a)
Values joined by “and” are separate entries in the source; they are usually repeats but may differ in a detail not shown here. Equal entries are not always repeated. Numbers after ± are expanded uncertainties.

Conditions: 303.16 K, Liquid, Vibrating tube method

CCCCCC(=O)OCC(COC(=O)CCCCC)(COC(=O)CCCCC)COC(=O)CCCCC [pentaerythritol tetrahexanoate]
Conditions	mass density
10818 kPa	995.1 ± 1.2 kg/m3
10847 kPa	995.1 ± 1.2 kg/m3
10876 kPa	995.3 ± 1.2 kg/m3
10911 kPa	995.2 ± 1.2 kg/m3
10941 kPa	995.3 ± 1.2 kg/m3
10972 kPa	995.3 ± 1.2 kg/m3
11002 kPa	995.2 ± 1.2 kg/m3
11031 kPa	995.3 ± 1.2 kg/m3
11066 kPa	995.3 ± 1.2 kg/m3
11454 kPa	995.6 ± 1.2 kg/m3
11487 kPa	995.6 ± 1.2 kg/m3
11513 kPa	995.6 ± 1.2 kg/m3
11540 kPa	995.6 ± 1.2 kg/m3
11571 kPa	995.7 ± 1.2 kg/m3
11596 kPa	995.6 ± 1.2 kg/m3
11626 kPa	995.6 ± 1.2 kg/m3
11790 kPa	995.8 ± 1.2 kg/m3
11810 kPa	995.6 ± 1.2 kg/m3
11820 kPa	995.9 ± 1.2 kg/m3
11829 kPa	995.8 ± 1.2 kg/m3
11924 kPa	995.8 ± 1.2 kg/m3
11933 kPa	995.7 ± 1.2 kg/m3
11944 kPa	995.8 ± 1.2 kg/m3
11958 kPa	995.9 ± 1.2 kg/m3
11979 kPa	995.9 ± 1.2 kg/m3
11996 kPa	996 ± 1.2 kg/m3
12017 kPa	996 ± 1.2 kg/m3
12842 kPa	996.5 ± 1.2 kg/m3
12884 kPa	996.5 ± 1.2 kg/m3
13029 kPa	996.6 ± 1.2 kg/m3
13048 kPa	996.5 ± 1.2 kg/m3
13072 kPa	996.5 ± 1.2 kg/m3
13092 kPa	996.6 ± 1.2 kg/m3
13112 kPa	996.6 ± 1.2 kg/m3
13136 kPa	996.7 ± 1.2 kg/m3
13156 kPa	996.5 ± 1.2 kg/m3
13176 kPa	996.6 ± 1.2 kg/m3
13200 kPa	996.7 ± 1.2 kg/m3
13220 kPa	996.6 ± 1.2 kg/m3
13241 kPa	996.7 ± 1.2 kg/m3
13266 kPa	996.7 ± 1.2 kg/m3
13286 kPa	996.7 ± 1.2 kg/m3
14924 kPa	997.7 ± 1.2 kg/m3
14953 kPa	997.6 ± 1.2 kg/m3
14977 kPa	997.7 ± 1.2 kg/m3
15002 kPa	997.7 ± 1.2 kg/m3
15135 kPa	997.8 ± 1.2 kg/m3
15160 kPa	997.8 ± 1.2 kg/m3
15189 kPa	997.8 ± 1.2 kg/m3
15214 kPa	997.8 ± 1.2 kg/m3
15239 kPa	997.8 ± 1.2 kg/m3
15264 kPa	997.9 ± 1.2 kg/m3
15318 kPa	997.9 ± 1.2 kg/m3
15342 kPa	997.9 ± 1.2 kg/m3
15371 kPa	997.9 ± 1.2 kg/m3
15394 kPa	997.9 ± 1.2 kg/m3
15422 kPa	997.9 ± 1.2 kg/m3
15445 kPa	998 ± 1.2 kg/m3
15468 kPa	998 ± 1.2 kg/m3
15492 kPa	998 ± 1.2 kg/m3
15520 kPa	998 ± 1.2 kg/m3
15543 kPa	998 ± 1.2 kg/m3
15567 kPa	997.9 ± 1.2 kg/m3
15595 kPa	998 ± 1.2 kg/m3
15618 kPa	998 ± 1.2 kg/m3
15865 kPa	998.4 ± 1.2 kg/m3
16816 kPa	998.8 ± 1.2 kg/m3
17240 kPa	999 ± 1.2 kg/m3
17241 kPa	999 ± 1.2 kg/m3
17243 kPa	999 ± 1.2 kg/m3
17245 kPa	999 ± 1.2 kg/m3
17258 kPa	999.1 ± 1.2 kg/m3
17279 kPa	999 ± 1.2 kg/m3
17302 kPa	999 ± 1.2 kg/m3
17313 kPa	999 ± 1.2 kg/m3
17343 kPa	999.1 ± 1.2 kg/m3
17353 kPa	999.1 ± 1.2 kg/m3 and 999 ± 1.2 kg/m3
17354 kPa	999.1 ± 1.2 kg/m3 and 999.2 ± 1.2 kg/m3
17601 kPa	999.3 ± 1.2 kg/m3
17625 kPa	999.2 ± 1.2 kg/m3
17654 kPa	999.2 ± 1.2 kg/m3
17675 kPa	999.2 ± 1.2 kg/m3
17704 kPa	999.3 ± 1.2 kg/m3
17727 kPa	999.3 ± 1.2 kg/m3
17750 kPa	999.5 ± 1.2 kg/m3
17777 kPa	999.3 ± 1.2 kg/m3
17799 kPa	999.3 ± 1.2 kg/m3
17825 kPa	999.3 ± 1.2 kg/m3
17847 kPa	999.3 ± 1.2 kg/m3
17869 kPa	999.3 ± 1.2 kg/m3
17891 kPa	999.4 ± 1.2 kg/m3
18682 kPa	999.8 ± 1.2 kg/m3
18706 kPa	999.9 ± 1.2 kg/m3
18735 kPa	999.9 ± 1.2 kg/m3
18759 kPa	999.9 ± 1.2 kg/m3
18784 kPa	999.9 ± 1.2 kg/m3
18808 kPa	1000 ± 1.2 kg/m3
18838 kPa	999.9 ± 1.2 kg/m3
18862 kPa	1000 ± 1.2 kg/m3
18892 kPa	1000 ± 1.2 kg/m3
23429 kPa	1002.6 ± 1.2 kg/m3
23459 kPa	1002.6 ± 1.2 kg/m3
23495 kPa	1002.6 ± 1.2 kg/m3
23525 kPa	1002.6 ± 1.2 kg/m3
23561 kPa	1002.7 ± 1.2 kg/m3
23592 kPa	1002.6 ± 1.2 kg/m3
23622 kPa	1002.8 ± 1.2 kg/m3
23653 kPa	1002.7 ± 1.2 kg/m3
23690 kPa	1002.8 ± 1.2 kg/m3
23720 kPa	1002.8 ± 1.2 kg/m3
23757 kPa	1002.7 ± 1.2 kg/m3
23788 kPa	1002.8 ± 1.2 kg/m3
23820 kPa	1002.9 ± 1.2 kg/m3
23856 kPa	1002.8 ± 1.2 kg/m3
23888 kPa	1002.8 ± 1.2 kg/m3
23920 kPa	1002.9 ± 1.2 kg/m3
23958 kPa	1002.9 ± 1.2 kg/m3
23990 kPa	1002.8 ± 1.2 kg/m3
24022 kPa	1002.9 ± 1.2 kg/m3
24054 kPa	1002.8 ± 1.2 kg/m3
24093 kPa	1003 ± 1.2 kg/m3
24125 kPa	1003 ± 1.2 kg/m3
24164 kPa	1003 ± 1.2 kg/m3
24196 kPa	1003.1 ± 1.2 kg/m3
24226 kPa	1003 ± 1.2 kg/m3
24255 kPa	1003.1 ± 1.2 kg/m3
24419 kPa	1003.2 ± 1.2 kg/m3
24447 kPa	1003.2 ± 1.2 kg/m3
24481 kPa	1003.2 ± 1.2 kg/m3
24509 kPa	1003.2 ± 1.2 kg/m3
24537 kPa	1003.1 ± 1.2 kg/m3
24571 kPa	1003.3 ± 1.2 kg/m3
24599 kPa	1003.3 ± 1.2 kg/m3
24628 kPa	1003.3 ± 1.2 kg/m3
24656 kPa	1003.4 ± 1.2 kg/m3
24691 kPa	1003.3 ± 1.2 kg/m3
24720 kPa	1003.3 ± 1.2 kg/m3
24749 kPa	1003.3 ± 1.2 kg/m3
24778 kPa	1003.3 ± 1.2 kg/m3
24812 kPa	1003.4 ± 1.2 kg/m3
24935 kPa	1003.4 ± 1.2 kg/m3
25029 kPa	1003.4 ± 1.2 kg/m3
25058 kPa	1003.4 ± 1.2 kg/m3
25094 kPa	1003.6 ± 1.2 kg/m3
